From US20070203158A1, “Fungicidal Mixtures” (BASF AKTIENGESELLSCHAFT, priority 2004, published 2007)

Test system: Plasmopara viticola
Test: Activity against peronospora of grapevines caused by Plasmopara viticola (protective spray on potted vines)
Format: in vivo
Details: individual active compound, untreated control 89% infection
Description: The active compounds, separately or jointly, were prepared as a stock solution comprising 0.25% by weight of active compound in acetone or DMSO. 1% by weight of the emulsifier Uniperol® EL (wetting agent having emulsifying and dispersant action based on ethoxylated alkylphenols) was added to this solution, and the mixture was diluted with water to the desired concentration.
Leaves of potted vines were sprayed to runoff point with an aqueous suspension having the concentration of active compound stated below. The next day, the undersides of the leaves were inoculated with an aqueous sporangia suspension of Plasmopara viticola. The grapevines were then initially placed in a water-vapor-saturated chamber at 24° C. for 48 hours and then in a greenhouse at 20-30° C. for 5 days. After this period of time, the plants were again placed in a humid chamber for 16 hours to promote sporangiophore eruption. The extent of the development of the disease on the undersides of the leaves was then determined visually.
The visually determined percentages of infected leaf areas were converted into efficacies in % of the untreated control:
The efficacy (E) is calculated as follows using Abbot's formula: E=(1−α/β)·100 • α corresponds to the fungicidal infection of the treated plants in % and • β corresponds to the fungicidal infection of the untreated (control) plants in %
An efficacy of 0 means that the infection level of the treated plants corresponds to that of the untreated control plants; an efficacy of 100 means that the treated plants are not infected.
The expected efficacies of mixtures of active compounds were determined using Colby's formula (Colby, S. R. “Calculating synergistic and antagonistic responses of herbicide combinations”, Weeds, 15, 20-22, 1967) and compared with the observed efficacies.
Colby's formula: E=x+y−x·y/100 • E expected efficacy, expressed in % of the untreated control, when using the mixture of the active compounds A and B at the concentrations a and b • x efficacy, expressed in % of the untreated control, when using the active compound A at the concentration a
y efficacy, expressed in % of the untreated control, when using the active compound B at the concentration b

| SMILES | Efficacy in % of the untreated control (1 ppm in the spray liquor) [%] | Efficacy in % of the untreated control (4 ppm in the spray liquor) [%] |
| --- | --- | --- |
| CC1CCN(c2c(-c3c(F)cc(F)cc3F)c(Cl)nc3ncnn23)CC1 [compound I, 5-chloro-7-(4-methylpiperidin-1-yl)-6-(2,4,6-trifluorophenyl)-[1,2,4]tri-azolo[1,5-a]pyrimidine] | 0 | 33 |
| CO/C=C(/C(=O)OC)c1ccccc1COc1cccc(C(F)(F)F)n1 [compound II, methyl 3-methoxy-2-[2-(6-trifluoromethylpyridin-2-yloxymethyl)phenyl]acrylate] | 33 | 66 |
